Converted amounts (≈) assume the structure as drawn. Like-named read-outs stand apart in the source and are kept apart here.
Assays:
Mtb methylated ribosome = test: Mtb in vitro translation assay with methylated (erythromycin-treated) ribosome; assay type: biochemical, Mycobacterium tuberculosis; settings: methylated ribosome; read-out: IC50 methylated ribosome
Mtb ribosome = assay type: biochemical, Mycobacterium tuberculosis
Mtb H37Rv [1] = test: microbe, parasite or virus in culture; assay type: cell-based, Mycobacterium tuberculosis; settings: Mycobacterium tuberculosis, H37RV; read-out: MIC for Mtb in liquid culture
Mtb H37Rv [2] = test: Combination study in mouse model of TB; assay type: in vivo; settings: mouse, in vivo
M. bovis BCG Pasteur = test: microbe, parasite or virus in culture; assay type: cell-based, Mycobacterium bovis
Mtb H37Rv [3] = test: MIC80 after overnight pre-incubation of Mtb with subinhibitory macrolide; assay type: cell-based; settings: Mycobacterium tuberculosis
[4] = non-methylated ribosome, read-out: IC50 ribosome
[5] = read-out: Inhibition of Mtb translation (IC50 μM)

How did the IC50 (Mtb methylated ribosome) turn out when `CC[C@H]1OC(=O)[C@H](C)[C@@H](O[C@H]2C[C@@](C)(OC)[C@@H](O)[C@H](C)O2)[C@H](C)[C@@H](O[C@@H]2O[C@H](C)C[C@H](N(C)C)[C@H]2O)[C@](C)(O)C[C@@H](C)CN(C)[C@H](C)[C@@H](O)[C@]1(C)O` [Azithromycin, reference compound] was run?
Its IC50 is greater than 100 µM.

And the IC50 (Mtb ribosome; [4])?
Its IC50 is 2.91 µM.

`CC[C@H]1OC(=O)[C@H](C)[C@@H](O[C@H]2C[C@@](C)(OC)[C@@H](O)[C@H](C)O2)[C@H](C)[C@@H](O[C@@H]2O[C@H](C)C[C@H](N(C)C)[C@H]2O)[C@](C)(O)C[C@@H](C)/C(=N\OCOCCOC)[C@H](C)[C@@H](O)[C@]1(C)O` [roxithromycin, reference compound] was tested. Which MIC (Mtb H37Rv [1]) did it give?
The MIC was 32 µM (≈ 26.8 µg/mL).

Which “Mean ± SD lung CFU counts, Week 4” value (Mtb H37Rv [2]) does the source give for `NC(=O)c1cnccn1` [Z, Pyrazinamide] here?
The value was 5.99 ± 0.19.

Which results are given for `CC[C@H]1OC(=O)C[C@@H](O)[C@H](C)[C@@H](O[C@@H]2O[C@H](C)[C@@H](O[C@H]3C[C@@](C)(O)[C@@H](O)[C@H](C)O3)[C@H](N(C)C)[C@H]2O)[C@@H](CC=O)C[C@@H](C)C(=O)/C=C/C(C)=C/[C@@H]1CO[C@@H]1O[C@H](C)[C@@H](O)[C@@H](OC)[C@H]1OC` [Tylosin, reference compound]?
IC50 (Mtb methylated ribosome): 0.377 µM; IC50 (Mtb ribosome; [4]): 0.0892 µM

`CCC[C@@H]1C[C@@H](C(=O)N[C@@H]([C@H]2O[C@H](SC)[C@H](O)[C@@H](O)[C@H]2O)[C@H](C)Cl)N(C)C1` [Clindamycin, reference compound] was tested. Which IC50 (Mtb methylated ribosome) did it give?
The IC50 was 42.3 µM.

What about the IC50 (Mtb ribosome; [4]) of the same compound?
The IC50 was 0.08 µM.

For `COc1nc2ccc(Br)cc2cc1[C@@H](c1ccccc1)[C@@](O)(CCN(C)C)c1cccc2ccccc12` [BDQ, Bedaquiline], which “Mean ± SD lung CFU counts, Week 4” value (Mtb H37Rv [2]) is on record?
The value was 2.96 ± 0.19.

Which results are given for `NNC(=O)c1ccncc1` [Isoniazid, reference compound]?
Growth inhibition (MIC80) (M. bovis BCG Pasteur): 0.40 µM; MIC80 (M. bovis BCG Pasteur; Mycobacterium tuberculosis variant bovis BCG, BCG, read-out: Growth inhibition (MIC80)): 0.34 µM (≈ 0.0466 µg/mL)

For `O=[N+]([O-])c1cn2c(n1)OC[C@@H](OCc1ccc(OC(F)(F)F)cc1)C2` [Pa, Pretomanid], which “Mean ± SD lung CFU counts, Week 4” value (Mtb H37Rv [2]) is on record?
Its value is 5.83 ± 0.12.

How did the MIC (Mtb H37Rv [1]) turn out when `CO/N=C1\C[C@@H](C)O[C@@H](O[C@@H]2[C@@H](C)[C@H](O[C@H]3C[C@@](C)(O)[C@@H](O)[C@H](C)O3)[C@@H](C)C(=O)O[C@H]([C@@H](C)CO[C@@H]3O[C@H](C)[C@@H](O)[C@@H](OC)[C@H]3OC)[C@H](C)[C@@H](OC(=O)CC(C)C)[C@@H](C)C(=O)[C@@](C)(OC(=O)NCCNS(=O)(=O)c3ccccc3[N+](=O)[O-])C[C@@H]2C)[C@@H]1O` [SEQ-977] was run?
Its MIC is 0.13 µM (≈ 0.164 µg/mL).

And the IC50 (Mtb ribosome; [5])?
The IC50 was 0.034 µM.

For `CON=C1C[C@@H](C)O[C@@H](O[C@@H]2[C@@H](C)[C@H](O[C@H]3C[C@@](C)(O)[C@@H](O)[C@H](C)O3)[C@@H](C)C(=O)O[C@H](C(C)CO[C@@H]3O[C@H](C)[C@@H](O)[C@@H](OC)[C@H]3OC)[C@H](C)[C@@H](OC(=O)CC(C)C)[C@@H](C)C(=O)[C@@](C)(OC(=O)NCCn3c([N+](=O)[O-])cnc3C)C[C@@H]2C)[C@@H]1O` (stereo partly drawn) [SEQ-569], which MIC (Mtb H37Rv [1]) is on record?
The MIC was 0.57 µM (≈ 0.677 µg/mL).

What about the IC50 (Mtb ribosome; [5]) of the same compound?
The IC50 was 0.054 µM.

Which MIC80 (Mtb H37Rv [3]) does the source give for `CC(=O)NC[C@H]1CN(c2ccc(N3CCOCC3)c(F)c2)C(=O)O1` [Linezolid] here?
The MIC80 was 1 µM (≈ 0.337 µg/mL).

And the “Mean ± SD lung CFU counts, Week 4” value (Mtb H37Rv [2])?
The value was 6.86 ± 0.08.

Which results are given for `CC[C@H]1OC(=O)[C@H](C)[C@@H](O[C@H]2C[C@@](C)(OC)[C@@H](O)[C@H](C)O2)[C@H](C)[C@@H](O[C@@H]2O[C@H](C)C[C@H](N(C)C)[C@H]2O)[C@](C)(O)C[C@@H](C)C(=O)[C@H](C)[C@@H](O)[C@]1(C)O` [Erythromycin, reference compound]?
IC50 (Mtb methylated ribosome): 140 µM; MIC (Mtb H37Rv [1]): 128 µM (≈ 93.9 µg/mL); IC50 (Mtb ribosome; [4]): 0.671 µM

Reference: article PMC9994261 (Cell, 2023)
